Key:
[1] = Highest frequency of moderate liver toxicity observed during clinical trials, expressed as a percentage. [column '% BIOL' in source]; settings: human
[2] = Highest frequency of acute liver toxicity observed during clinical trials, expressed as a percentage. [column '% AIGUE' in source]; settings: human
[3] = Presence of at least one case with successful reintroduction. [column 'REINT' in source]; settings: human
[4] = Comments (NB not yet translated). [column 'COMMENTAIRES' in source]; settings: human
[5] = Times to onset, minimal and maximal, observed in the indexed observations. [column 'DELAI' in source]; settings: human
[6] = Proposed mechanism(s) of liver damage. [column 'MEC' in source]; settings: human
[7] = human, serum
[8] = human, serum; remark: listed apart in the source
[9] = human
[10] = human; remark: listed apart in the source
[11] = human; remark: listed apart in the source
[12] = human, serum, 4383 h
[13] = human; remark: listed apart in the source
[14] = human; remark: listed apart in the source
[15] = human; remark: listed apart in the source
[16] = human; remark: listed apart in the source
[17] = human; remark: listed apart in the source
[18] = human; remark: listed apart in the source
[19] = human; remark: listed apart in the source
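For Hepatotoxicity (association with vascular disease) in this document: count of indexed literature references reporting vascular liver injury in humans, e.g. peliosis hepatitis, hepatic veno-occlusive disease or Budd-Chiari syndrome.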
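For Hepatotoxicity (benign tumour) in this document: value is a count of indexed literature references citing a benign tumour confirmed by histopathology.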
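For Hepatotoxicity (choleostasis) in this document: human cholestatic liver injury, shown by histopathology or by peak ALT or AST elevation over alkaline phosphatase ratio below 2, value counts indexed literature reports.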
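For Hepatotoxicity (chronic liver disease) in this document: chronic liver injury confirmed by histopathology or persistently raised serum aminotransferase activity beyond 6 months, value given as the count of indexed literature references.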
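For Hepatotoxicity (cirrhosis) in this document: value is a count of indexed literature references reporting cirrhosis confirmed by histopathology.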
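For Hepatotoxicity (cytolytic) in this document: human cytolytic liver injury, shown by histopathology or by a ratio above 5 of peak ALT or AST elevation to alkaline phosphatase elevation, value counts indexed references.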
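For Hepatotoxicity (granulomatous hepatitis) in this document: value is a count of indexed literature references reporting granulomatous liver disease confirmed by histopathology.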
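For Hepatotoxicity (malignant tumour) in this document: malignant tumour confirmed by histopathology, value gives the count of indexed literature references reporting it.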
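For Hepatotoxicity (severe hepatitis) in this document: human clinical data: severe hepatitis, meaning potentially life-threatening liver failure or clinically observed cases, the value counts how many indexed literature references report it.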
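For Hepatotoxicity (steatosis) in this document: steatosis confirmed by histopathology, value is the count of indexed references.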

Compound	Hepatotoxicity (moderate) [1]	Hepatotoxicity (acute) [2]	Hepatotoxicity (successful reintroduction) [3]	Hepatotoxicity (comment) [4]	Hepatotoxicity (time to onset) [5]	Hepatotoxicity (mechanism) [6]	Hepatotoxicity (moderate) [7]	Hepatotoxicity (acute) [8]	Hepatotoxicity (cytolytic) [9]	Hepatotoxicity (choleostasis) [10]	Hepatotoxicity (severe hepatitis) [11]	Hepatotoxicity (chronic liver disease) [12]	Hepatotoxicity (cirrhosis) [13]	Hepatotoxicity (granulomatous hepatitis) [14]	Hepatotoxicity (association with vascular disease) [15]	Hepatotoxicity (steatosis) [16]	Hepatotoxicity (malignant tumour) [17]	Hepatotoxicity (benign tumour) [18]	Hepatotoxicity (animal toxicity known) [19]
CNC(=O)OCc1cccc(COC(=O)NC)n1 [PYRICARBATE]	10%	0.7%	yes	AC_ANTI-MFR/-ML	2 weeks - 6 months	Allergic	4	9	8	4	3	0	0	0	0	0	0	0	A
CO[C@H]1/C=C/O[C@@]2(C)Oc3c(C)c(O)c4c(O)c(c(/C=N/N5CCN(C)CC5)c(O)c4c3C2=O)NC(=O)/C(C)=C\C=C\[C@H](C)[C@H](O)[C@@H](C)[C@@H](O)[C@@H](C)[C@H](OC(C)=O)[C@@H]1C [RIFAMPIN]	23%	7.3%	yes	AC_ANTI-N I/ISONIAZIDE/TROLEANDOMYCINE	2 days - 14 months	Allergic, Dose-dependant	22	38	14	19	6	0	0	0	0	0	0	0	yes
CO[C@H]1C[C@H](O[C@H]2[C@H](C)[C@@H](O[C@@H]3O[C@H](C)C[C@H](N(C)C)[C@H]3OC(C)=O)[C@@H](C)C[C@@]3(CO3)C(=O)[C@H](C)[C@@H](OC(C)=O)[C@@H](C)[C@@H](C)OC(=O)[C@@H]2C)O[C@@H](C)[C@@H]1OC(C)=O [TROLEANDOMYCIN]	83.3%	4%	yes	CHOLANGITE I/PILULE/RIFAMPICINE RC/ERYTHROMYCINE	3 days - 2 weeks	Allergic, Dose-dependant	15	27	2	26	0	0	0	0	0	0	0	0	yes
CC[C@]1(O)C[C@H]2CN(CCc3c([nH]c4ccccc34)[C@@](C(=O)OC)(c3cc4c(cc3OC)N(C=O)[C@H]3[C@@](O)(C(=O)OC)[C@H](OC(C)=O)[C@]5(CC)C=CCN6CC[C@]43[C@@H]65)C2)C1 [VINCRISTINE]	7.3%	0%	yes	I/RADIOTHERAPIE REACTIVATION_HVB	3 days - 20 days	Dose-dependant	3	5	4	0	4	0	0	0	7	0	1	0	yes
ALDESLEUKIN	100%	35.7%	yes	CHOLECYSTITE PERICHOLANGITE	1 day - 2 years	Allergic, Dose-dependant	58	14	6	6	1	0	1	0	0	1	0	0	yes
CISPLATIN	93%	7%	yes	CHOLANGITE/IAH	1 day - 2 weeks	Dose-dependant	23	3	2	1	1	0	0	0	2	1	0	0	yes
